Measurements: US8236984B2, “Compound and use thereof in the treatment of amyloidosis” (Pentraxin Therapeutics Ltd., priority 2007, dated 2012)
Entries after “also recorded” stand apart in the source; their conditions may differ.

Key:
[1] = target: T1, native wild type transthyretin (Homo sapiens, UniProt P02766); assay: Gel filtration (Superdex 200) of transthyretin-ligand complexes; format: binding; details: for A280/A330 ratio of main component eluting at 14.4 ml: 2 nanomoles transthyretin incubated 1 h with 1 μl of 4 mM ligand in DMSO, PBS; for dissociation of ligand from the complex during gel filtration: after 100 volume solvent exchanges
T1 construct: isolated from pooled normal human plasma, was obtained from Scipac; purchased Scipac Ltd, Sittingbourne, Kent, UK; host or cells: pooled normal human plasma
Description: 1.3 Gel filtration. Native transthyretin was eluted with either PBS or 150 mM ammonium bicarbonate (pH 7.6) from a Superdex 200 (30×1.0 cm) column, run on an ÅKTA Explorer system, as a UV absorbing peak (A280/A330˜30 to 50:1) with Ve 14.4 ml (FIG. 1). A minor (<5%) higher molecular weight component eluting at 12.5 ml was always seen.
3.1.1. Binding of 4ajm15 and mds84 by transthyretin. One μl (5.3 nmol) of a concentrated (5.3 mM) solution of 4ajm15 in DMSO was added to 3.8 nmol of transthyretin in 100 μl PBS (1.4 fold molar excess of ligand) and incubated at room temperature for 30 min. The sample was chromatographed on Superdex 200, where the transthyretin-4ajm15 complex eluted at 14.4 ml, with a reduced A280/A330 ratio (˜5:1) consistent with binding. A similar result was obtained with transthyretin and 4ajm15 when chromatography was undertaken in volatile ammonium bicarbonate buffer. A similar result was also obtained when mds84 (2 nmol) was first dried into a tube and then resuspended in 5 μl of DMSO before adding the protein solution. In further experiments, 2 nanomoles of native wild type transthyretin (Scipac) were incubated in 55 μl of PBS for 1 h with either 1 μl DMSO (control) or 1 μl of a 4 mM solution in DMSO of mds84 or 4ajm15. Samples were chromatographed on a Superdex 200 column (30×1 cm) in PBS at 0.5 ml/min, with 0.5 ml fractions collected (FIG. 1). […] The full UV spectra of the main components were determined in each case and were consistent with a transthyretin:ligand ratio of ˜1:0.9.

[2] = target: T2, wild type transthyretin (Homo sapiens, UniProt P02766); assay: Differential scanning calorimetry of transthyretin with ligand; format: binding; parameters: isolated from pooled normal human plasma, was obtained from Scipac; purchased Scipac Ltd, Sittingbourne, Kent, UK; host or cells: pooled normal human plasma
[3] = target: T3, wild type transthyretin isolated from plasma (Homo sapiens, UniProt P02766); assay: Competition with 125I-T4 for binding by pure transthyretin; details: 125 nM transthyretin, trace 125I-T4, pH 8.0, overnight 4° C.
T3 construct: Native tetrameric transthyretin was purified from fractionated human plasma; from tissue; host or cells: human plasma

[4] = target: T2, wild type transthyretin; assay: Inhibition of transthyretin aggregation at acidic pH (turbidity at 400 nm); format: biochemical; parameters: isolated from pooled normal human plasma, was obtained from Scipac; purchased Scipac Ltd, Sittingbourne, Kent, UK; host or cells: pooled normal human plasma; details: pH 4.4, 3 d 37° C.
Description: 3.3.1 Wild type transthyretin. The purified wild type transthyretin (liquid and lyophilised) used in these experiments, isolated from pooled normal human plasma, was obtained from Scipac, (Sittingbourne, Kent, UK). Protein concentration was determined by absorbance at 280 nm after correction for light scattering at 320 nm using the absorption coefficient E1 cm^1%=14.0. […] Nano electrospray ionisation mass spectrometry confirmed the presence of normal and cysteinylated transthyretin monomers (Terazaki et al, 1998) under denaturing conditions, and solvent-bound transthyretin tetramer (Nettleton et al, 1998) under mild desolvation conditions.
3.3.2 Inhibition of transthyretin aggregation by 4ajm15: In pilot experiments, transthyretin aggregates were formed from wild type transthyretin (3.6 μM) after incubation at acidic pH for 3 d at 37° C. (Colon and Kelly, 1992). The efficacy of 4ajm15 as an inhibitor of transthyretin aggregate formation was then compared with other transthyretin ligand compounds. […] After 30 min at 37° C., the pH was adjusted to pH 4.4 (with 0.2 M sodium acetate buffer pH 4.0), and the ˜1 ml mixtures were incubated unstirred for 3 d at 37° C.
Using the same method the activities of mds84 and 4ajm15 as inhibitors of the aggregation of both wild type transthyretin and the most aggressively aggregating transthyretin variant, L55P, were evaluated in triplicate with both proteins at 3.6 μM and with one (3.6 μM) or 3 equivalents (10.8 μM) of each ligand. Wild type transthyretin was studied at pH 4.4 and L55P at pH 5.0. […] Mean values and standard deviations are shown in Table 2 and in FIG. 4, where results with 1:1 molar ratio are shown cross hatched and 3:1 molar ratio in open bars.

[5] = target: L55P variant transthyretin (Homo sapiens, UniProt P02766, L75P); assay: Mass spectrometric analysis of subunit exchange; format: biochemical; parameters: made in house; details: for subunit exchange of L55P transthyretin: in words
Description: 4.2 Mass spectrometric analysis of subunit exchange. Recombinant wild type, L55P and V30M transthyretin variants were biosynthetically labelled with isotopes [^15N] and [^15N, ^13C] as previously described (Keetch C A et al, 2005). Immediately prior to analysis, proteins were buffer exchanged into 20 mM ammonium acetate, pH 7.0 using Micro Biospin columns (Bio-Rad, UK). The subunit composition of transthyretin was monitored as a function of time by incubating an equimolar solution (4.4 μM) of [^15N] and [^15N, ^13C] labelled proteins in the presence of 2-fold molar excess of 4ajm15 in DMSO or 2.5% DMSO alone as a control. Each experiment was carried out in triplicate at room temperature and at 4° C. as well, since it is known that subunit exchange is accelerated at low temperatures. Nanoflow ESMS was performed on a QToF2 instrument (Waters/Micromass UK, Ltd.) modified for high mass operation (Sobott et al, (2002)) and calibrated externally using caesium iodide (100 mg/ml). Each solution, 1.5 μl, was electrosprayed from gold coated borosilicate capillaries prepared in-house as described (Nettleton E J, et al, 1998). To preserve the non-covalent interactions in the transthyretin tetramer, the MS parameters applied were: capillary voltage 1.6 kV, sample cone 160 V, extractor cone 20 V, ion transfer stage pressure 7.0×10 ^−3 mbar, quadrupole analyzer pressure 9.5×10^−4 mbar and ToF analyzer pressure 1.7×10^−6 mbar. Data were processed with MassLynx software (Waters/Micromass UK, Ltd.) and are presented with minimal smoothing and without background subtraction.
This most unstable transthyretin variant rapidly undergoes spontaneous and extensive subunit exchange, as illustrated in FIG. 8. FIGS. 9-11 show the effects of decreasing molar ratios of mds84 on inhibition of subunit exchange. […] At lower molar ratios of mds84 some exchange takes place but the transthyretin molecules which bind mds84 are still completely stabilized.

[6] = five fold molar excess of ligand

| SMILES | A280/A330 ratio of main component eluting at 14.4 ml [1] | dissociation of ligand from the complex during gel filtration [1] | Tm of wild type transthyretin with the ligand [2, 6] [°C] | increase in Tm of wild type transthyretin [2, 6] [°C] | IC50 [3] [nM] | Aggregation of transthyretin, Mean (1:1) ([4]; wild type 3.6 μM, ligand 3.6 μM) | Aggregation of transthyretin, Mean (3:1) ([4]; wild type 3.6 μM, ligand 10.8 μM) | ligand bound per mole of transthyretin for complete stabilization ([5]; L55P variant, decreasing molar ratios of ligand) | subunit exchange of L55P transthyretin [5] | midpoint of thermal denaturation (Tm) in the presence of ligand ([2]; preliminary DSC, 0.02 mM tetramer, 0.2 mM ligand, PBS pH 7.4, 2% DMSO, transthyretin alone 99.5) [°C] | transthyretin aggregate formation in the presence of ligand ([4]; wild type, in words) |
| --- | --- | --- | --- | --- | --- | --- | --- | --- | --- | --- | --- |
| O=C(O)c1ccccc1Nc1cc(Cl)c(OCCCCCCCOc2c(Cl)cc(Nc3ccccc3C(=O)O)cc2Cl)c(Cl)c1 [mds84, 2,2′-(4,4′-(heptane-1,7-diylbis(oxy))bis(3,5-dichloro-4,1-phenylene))bis(azanediyl)dibenzoic acid] | ~4.6 | negligible dissociation | 107.5 | 6.2 | 150 ± 25 | 1.7 per cent of control with DMSO alone | 2 per cent of control with DMSO alone | one mole | completely inhibits all subunit exchange |  |  |
| O=C(O)c1ccccc1Nc1cc(Cl)c(OCCCCCCCCCCCOc2c(Cl)cc(Nc3ccccc3C(=O)O)cc2Cl)c(Cl)c1 [4ajm15, 2,2′-(4,4′-(undecane-1,11-diylbis(oxy))bis(3,5-dichloro-4,1-phenylene))bis(azanediyl)dibenzoic acid] | ~4.6 | negligible dissociation |  |  | 200 ± 70 |  |  |  | Exactly the same effect | 103.6 | dramatically reduced; also recorded: identical to those with mds84 |
